The text below walks through data of PubChem BioAssay AID2423 (Broad Institute, 2010).

As usually defined, the EC50 is the midpoint of the concentration-response curve.

Records with an inconclusive call do not appear. Calls of active or inactive are those of the source. How the calls were made is not given here.

The subject of this experiment is C. albicans CaCi-8 + fluconazole, Alamar Blue growth, 48 h. The experiment can be described thus: resistant C. albicans growth inhibition with fluconazole, dose response, CaCi-8 strain, Alamar Blue fluorescence (AID 2423).
For `C(C#CCCCCCCCCC[n+]1ccccc1)#CCCCCCCCCC[n+]1ccccc1`, the concentration for a half-maximal effect (EC50) is 3520 nM.

Take `Cc1ccccc1C(=O)NNC(=S)NC(=O)c1ccc(Cl)cc1Cl`: the EC50 is 1390 nM.

Take `CCCCN(CCCC)S(=O)(=O)c1ccc(C(=O)Nc2nnc(COC)o2)cc1`: the EC50 was > 15000 nM (inactive).

For `Oc1c(CN2CCN(c3ccccc3)CC2)cc(Br)c2cccnc12`, the EC50 is 1230 nM.

Consider `COc1ccc(-c2nn(-c3ccccc3)cc2/C=N/NC(=S)NC(C)C)cc1OC`, for which the EC50 is 1890 nM.

In the case of `COc1cccc(C(=O)NNC(=O)c2ccc3ccccc3c2O)c1`, the half-maximal effective concentration (EC50) is 9440 nM.

With `C/C(=N/NC(=O)c1cc(O)c(O)c(O)c1)c1ccc([N+](=O)[O-])cc1`, the EC50 is 4810 nM.

As to `O=C(/C(=N/N=C/c1ccc(O)c(O)c1O)c1ccccc1)c1ccccc1`, the EC50 was 2300 nM.

Turning to `COc1ccc2c(c1OC)C(=O)N1N=C(c3ccc(O)cc3)CC21` (stereo not drawn), the EC50 was > 15000 nM (inactive).

In the case of `O=C(OCn1ncc(Cl)c(Cl)c1=O)c1ccc(F)cc1`, the EC50 was > 16000 nM (inactive).

`O=C(NNC(=S)NC1CCCCC1)c1ccccc1Br`: the EC50 was > 16000 nM (inactive).

As to `COc1cccc(/C=N/Nc2ccc([N+](=O)[O-])cn2)c1O`, the EC50 is 1500 nM.

Regarding `CCCc1ccc(Oc2cn[nH]c2-c2ccc(O)cc2O)cc1`, the EC50 is 8050 nM.

Consider `Cc1onc(C(=O)Nc2sc3c(c2C#N)CCCC3)c1[N+](=O)[O-]`, for which the EC50 was 989 nM.

In the case of `C=CCn1c(COc2ccc(F)cc2)nnc1SCC(=O)Nc1cccc(S(N)(=O)=O)c1`, the EC50 is > 16000 nM (inactive).

Regarding `Cc1ccc(NC(=O)NNC(=O)c2cc3ccccc3cc2O)cc1C`, the EC50 was > 16000 nM (inactive).

In the case of `Cc1ccc(Cn2nnc3c(=O)[nH]c(C4CCN(S(=O)(=O)c5ccc(C)cc5)CC4)nc32)cc1`, the EC50 is > 15000 nM (inactive).

As for `NS(=O)(=O)c1cccc(NC(=S)NCc2ccc3c(c2)OCO3)c1`, the EC50 is > 16000 nM (inactive).

As to `COc1ccc(NC(=O)Nc2nc3c(s2)CCCC3)cc1`, the EC50 was 2740 nM.

In the case of `COc1cc(C(Nc2ccccn2)c2ccc3ccc(C)nc3c2O)cc(OC)c1O` (stereo not drawn), the EC50 was 2020 nM.

Take `O=S(=O)(Nc1cccc2cccnc12)c1ccc(S(=O)(=O)N2CCCC2)cc1`: the EC50 was 5620 nM.

As for `O=C(NCCNC(=O)C(c1ccccc1)c1ccccc1)c1ccco1`, the EC50 is > 15000 nM (inactive).

Turning to `CC(C)C(=O)NC(c1ccco1)c1ccc2cccnc2c1O` (stereo not drawn), the EC50 is 1940 nM.

As to `O=C(c1ccccc1)C(CN1CCCC1)c1ccccc1` (stereo not drawn), the EC50 was > 16000 nM (inactive).

`CN(C)S(=O)(=O)c1cccc(NC(=S)N/N=C/c2cc(Br)ccc2O)c1`: the concentration for a half-maximal effect (EC50) is 3840 nM.

As for `N#Cc1c(Cl)nsc1NC(=O)c1ccccc1`, the EC50 is > 16000 nM (inactive).

For `O=c1[nH]c(-c2ccccn2)nc(C(F)(F)F)c1Br`, the EC50 is 495 nM.

Take `COc1cc([N+](=O)[O-])cc(/C=N/NC(=O)c2cc(-c3ccccc3)nc3ccccc23)c1O`: the EC50 is 1540 nM.

For `O=C(O)c1ccc(-c2nc(-c3ccc(Cl)c(Cl)c3)cs2)cc1`, the EC50 was 4160 nM.

`CCCOc1cccc(C(=O)N/N=C/c2coc3ccccc3c2=O)c1`: the EC50 is > 15000 nM (inactive).

Turning to `O=c1[nH]n2c(C(F)(F)F)cc(C3CC3)nc2c1N=Nc1ccccc1`, the EC50 was 4250 nM.

As for `O=Nc1c(-c2cccc([N+](=O)[O-])c2)nc2ncccn12`, the EC50 is 828 nM.

Consider `CCOc1ccccc1C(=O)N/N=C/c1ccoc1`, for which the EC50 is 2180 nM.

Turning to `Cc1ccc(-n2c(-c3ccccc3)c[n+]3c2CCC3)cc1`, the EC50 was 8580 nM.

On to `CCN(CC)C(=O)Cn1c(=O)n(-c2ccccc2)c(=O)c2c3c(sc21)CCC3`, for which the EC50 was > 16000 nM (inactive).

Consider `CCc1nnc(NC(=O)CSc2nc(SC)ns2)s1`, for which the EC50 is 1490 nM.

On to `CC[C@@H]1C=CC=CC[C@H](C)[C@@H](O)[C@@H](C)C(=O)[C@H](C)[C@@H](O)[C@H](C)C(=O)[C@H](C)[C@@H](O)[C@H](C)C=CC(=O)O[C@H]2[C@@H](C)[C@@H](CC1)O[C@@]1(CC[C@@H](C)[C@@H](C[C@H](C)O)O1)[C@@H]2C`, for which the EC50 was 654 nM.

In the case of `Oc1ccc2ccccc2c1/C=N/Nc1nnc(-c2ncc[nH]2)c2ccccc12`, the EC50 was 382 nM.

As for `CNC(=O)c1ccc2c(c1)nnn2C`, the EC50 was > 15000 nM (inactive).

On to `S=c1[nH]nc(-c2ccccc2)n1/N=C/c1cccs1`, for which the 50% effective concentration (EC50) was 6130 nM.

As to `C=C(C)COc1ccc(-c2n[nH]c(C)c2-c2ccccc2)c(O)c1`, the EC50 is 4290 nM.

Take `O=C(N/N=C/c1ccccc1O)c1cccc(C(F)(F)F)c1`: the EC50 was 1840 nM.

For the compound `Cc1cc(C)c2ccc(N)nc2c1O`, the EC50 was 14100 nM.

Take `COc1cccc(C(NC(C)=O)c2ccc3cccnc3c2O)c1` (stereo not drawn): the EC50 is 1730 nM.

`Cc1ccc(NC2=CC(=O)C(=O)c3ccccc32)cc1`: the EC50 is 451 nM.

Regarding `COc1ccc(C(NC(=O)C(C)C)c2ccc3cccnc3c2O)cc1` (stereo not drawn), the EC50 is 802 nM.

`Cc1cc(C(=O)NNC(=S)NC(C)c2ccccc2)c2ccccc2n1` (stereo not drawn): the EC50 was 3090 nM.

For the compound `CCCC(=O)NC(c1cccs1)c1cc(Cl)c2cccnc2c1O` (stereo not drawn), the half-maximal effective concentration (EC50) was 729 nM.

As for `C(=C\c1ccccc1)/CN1CCN(c2ncnc3c2oc2ccccc23)CC1`, the EC50 was under 120 nM.

In the case of `C[C@H]([C@@H](N)C(=O)N[C@@H](C(=O)O)[C@@H]1O[C@H](n2ccc(=O)[nH]c2=O)[C@@H](O)[C@H]1O)[C@@H](O)c1ccc(O)cn1`, the EC50 is 3160 nM.

For the compound `Cc1noc(NC(=O)c2ccc(Cl)c(Cl)c2)c1Cl`, the EC50 is > 15000 nM (inactive).

Turning to `CN1CCN(C(c2cccnc2)c2ccc3cccnc3c2O)CC1` (stereo not drawn), the EC50 is > 16000 nM (inactive).

Regarding `CCCC(=O)NC(c1ccccc1)c1ccc2cccnc2c1O` (stereo not drawn), the half-maximal effective concentration (EC50) was 783 nM.

Turning to `O=C(O)CCCCCn1c(O)c(C=C2N=c3ccccc3=N2)sc1=S`, the EC50 is 1640 nM.

In the case of `CC(=O)NC(c1cccs1)c1cc([N+](=O)[O-])c2cccnc2c1O` (stereo not drawn), the EC50 is 1080 nM.

As for `O=c1[nH]c(SCc2ccccc2F)nc2ccccc12`, the EC50 was 2120 nM.

As for `COc1ccc(CNCCNC(=O)c2ccco2)c(OC)c1OC`, the EC50 was > 16000 nM (inactive).

Turning to `CCCc1ccc(/C=C2\C(=O)c3ccccc3C(O)=C2C(=O)OCC)cc1`, the EC50 is > 15000 nM (inactive).

With `COc1cccc(/C=N\NC(=O)c2ccc(Cn3cc(Br)c([N+](=O)[O-])n3)o2)c1O`, the EC50 was 5070 nM.

As for `O=C(/C=C/c1ccc([N+](=O)[O-])o1)NNC(=O)c1ccc(F)cc1`, the concentration giving a half-maximal response (EC50) was 1190 nM.

Take `Cc1ccc(C(=O)Nc2cccc(-c3cn4ccccc4n3)c2)cc1`: the EC50 was 326 nM.

Consider `CCOC(=O)N1C(=O)C2(CCCCC2)N(c2ccccc2Cl)C1=S`, for which the EC50 was 1990 nM.

In the case of `O=C(/C=C/c1cccs1)NC(=S)NNC(=O)c1ccccc1O`, the EC50 was 8540 nM.

Take `C=CC(C)(C)c1c(O)c(CC=C(C)C)c(O)c2c(=O)c3ccc(O)c(O)c3oc12`: the EC50 is 3410 nM.

As for `O=Cc1ccc(O)c2ncccc12`, the EC50 is 1450 nM.

Take `CCCCC(=O)NC(=S)Nc1cccc(NC(=O)c2ccco2)c1`: the EC50 is 1220 nM.

For the compound `Cc1ccc(C(=O)c2oc3nc(C)cc(C)c3c2N)cc1`, the EC50 was 5280 nM.

In the case of `CCN1/C(=C/C(C)=C/c2sc3ccccc3[n+]2CC)Sc2ccccc21`, the EC50 is under 120 nM.
